The source of these data is patent publication US11358969B2, “Indole AHR inhibitors and uses thereof” (Ikena Oncology, Inc., priority 2017, dated 2022).

This test concerns the target T1, AHR (UniProt P35869).
T1 construct: IC50
T1 sequence (P35869 1-848): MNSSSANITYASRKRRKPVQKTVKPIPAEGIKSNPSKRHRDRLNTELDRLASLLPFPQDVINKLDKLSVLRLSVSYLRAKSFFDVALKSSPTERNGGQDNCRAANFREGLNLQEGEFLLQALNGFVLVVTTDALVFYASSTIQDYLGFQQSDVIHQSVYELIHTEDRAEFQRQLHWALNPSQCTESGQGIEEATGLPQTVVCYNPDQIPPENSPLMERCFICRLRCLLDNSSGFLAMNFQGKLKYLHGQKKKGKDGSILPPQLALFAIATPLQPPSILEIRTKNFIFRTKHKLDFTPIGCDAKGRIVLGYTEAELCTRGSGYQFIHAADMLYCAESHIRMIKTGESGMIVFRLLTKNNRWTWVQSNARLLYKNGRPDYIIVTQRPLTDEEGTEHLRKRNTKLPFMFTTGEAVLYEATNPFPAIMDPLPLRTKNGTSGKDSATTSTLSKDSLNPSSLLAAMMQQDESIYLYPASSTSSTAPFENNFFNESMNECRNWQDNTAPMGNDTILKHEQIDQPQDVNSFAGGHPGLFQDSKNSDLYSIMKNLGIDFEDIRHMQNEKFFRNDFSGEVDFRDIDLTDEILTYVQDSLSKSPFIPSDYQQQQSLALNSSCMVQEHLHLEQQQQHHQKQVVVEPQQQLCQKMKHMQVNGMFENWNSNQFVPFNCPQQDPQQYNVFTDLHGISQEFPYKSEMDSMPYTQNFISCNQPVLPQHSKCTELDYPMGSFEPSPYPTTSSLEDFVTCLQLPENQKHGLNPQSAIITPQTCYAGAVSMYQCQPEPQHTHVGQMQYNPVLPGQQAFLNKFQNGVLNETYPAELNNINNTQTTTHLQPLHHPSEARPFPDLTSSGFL
As to the kind of experiment: DRE-Luciferase Reporter Assay (Alternate Method) (Example 1B). To be noted: cell line and AHR activating ligand not specified. It is filed as cell-based, murine or human. The procedure: AHR binds to Dioxin Responsive Elements (DRE) upstream of genes that it activates. One measure of AHR activity is activation of a reporter gene, such as luciferase, downstream of one or multiple DRE elements. Luciferase activity will reflect activation and inhibition of AHR in the cells expressing his reporter.
Murine Hepa1-6 or Hepa-1c1c7 or other murine cell line with a DRE-luciferase reporter either stably or transiently transfected were plated in media in plates (96-well, 384-well or other plates) and incubated overnight at 37° C. in a CO2 incubator or compound and agonist were added at the time of plating. Likewise, human HepG2 or other human cell line with a DRE-luciferase reporter either stably or transiently transfected were plated in media in plates (96-well, 384-well or other plates) and incubated overnight at 37° C. in a CO2 incubator or compound and agonist were added at the time of plating.
At the time that cells are plated or following incubation overnight, an AHR activating ligand, such as TCDD, kynurenine, ITE (2-(1H-indole-3-ylcarbonyl)-4-thiazolecarboxylic methyl ester), VAF347, BNF (beta-naphthoflavone), FICZ (6-formylindolo(3,2-b) carbazole or other AHR ligands, was added with or without AHR antagonist.
Cells were incubated for 4, 15 or 24 hours or another time point and then lysed for determination of luciferase activity as a read-out of the AHR activation or inhibition. Luciferase was measured with a commercial kit such as the Promega Luciferase kit or any kit or reagents that provide the luciferin substrate for measuring luciferase activity. The level of luciferase with only activating ligand added was the maximum signal while the luciferase with no ligand was the minimum signal. IC50 values were determined as the concentration which inhibits half of the luciferase activity.
As for `CC(C)c1cnn2c(N[C@H]3Cc4ccc(O)cc4C3)cc(-c3cncc(F)c3)nc12` [I-220, (2S)-2-[[5-(5-fluoro-3-pyridyl)-3-isopropyl-pyrazolo[1,5-a]pyrimidin-7-yl]amino]indan-5-ol], the IC50 is < 500 nM.

In the case of `Cc1cnn2c(NCCc3c[nH]c4c(O)cccc34)cc(-c3cncc(F)c3)nc12` [I-172, 3-[2-[[5-(5-Fluoro-3-pyridyl)-3-methyl-pyrazolo[1,5-a]pyrimidin-7-yl]amino]ethyl]-1H-indol-7-ol], the IC50 is 1000 to 1500 nM. The figure for `CC(C)c1cnn2c(N[C@@H]3CCc4[nH]c5ccccc5c4C3)nc(-c3cncnc3)nc12` [I-270, (3R)—N-(8-Isopropyl-2-pyrimidin-5-yl-pyrazolo[1,5-a][1,3,5]triazin-4-yl)-2,3,4,9-tetrahydro-1H-carbazol-3-amine] is < 500 nM; for `CC(C)n1cnc2c(NCCc3cn4ccccc4n3)nc(-c3cncc(F)c3)nc21` [I-22, 2-(5-Fluoro-3-pyridyl)-N-(2-imidazo[1,2-a]pyridin-2-ylethyl)-9-isopropyl-purin-6-amine] it is < 500 nM; for `CC(C)c1cnn2c(NCCc3c[nH]c(N)n3)nc(-c3cncc(F)c3)nc12` [I-266] it is > 1500 nM. The figure for `Cc1cnn2c(N[C@@H](Cc3c[nH]c4ccccc34)C(=O)N(C)C)cc(-c3cncc(F)c3)nc12` [I-187b, (2S)-2-[[5-(5-Fluoro-3-pyridyl)-3-methyl-pyrazolo[1,5-a]pyrimidin-7-yl]amino]-3-(1H-indol-3-yl)-N,N-dimethyl-propanamide] is > 1500 nM; for `CC(C)c1cnn2c(NC3CCc4[nH]c5ccccc5c4C3)nc(-c3ccnnc3)nc12` (centres unmarked) [I-284] it is 500 to 1000 nM; for `Cc1[nH]c2ccc(F)cc2c1CCNc1nc(-c2cncc(F)c2)nc2c1ncn2C(C)C` [I-69, N-[2-(5-Fluoro-2-methyl-1H-indol-3-yl)ethyl]-2-(5-fluoro-3-pyridyl)-9-isopropyl-purin-6-amine] it is < 500 nM. Take `CC(C)c1cnn2c(NC3CCc4[nH]c5ccccc5c4C3)nc(N3CCN(C)CC3)nc12` (centres unmarked) [I-260]: the IC50 was > 1500 nM. As for `Fc1cncc(-c2nc(N[C@@H]3CCc4[nH]c5ccccc5c4C3)n3ncc(-c4ccn[nH]4)c3n2)c1` [I-253, (3R)—N-[2-(5-Fluoro-3-pyridyl)-8-(1H-pyrazol-5-yl)pyrazolo[1,5-a][1,3,5]triazin-4-yl]-2,3,4,9-tetrahydro-1H-carbazol-3-amine], the IC50 was < 500 nM.

As to `N#Cc1cncc(-c2nc(NCCc3c[nH]c4ccccc34)cc(OC3CCCC3)n2)c1` [I-53, 5-[4-(Cyclopentoxy)-6-[2-(1H-indol-3-yl)ethylamino]pyrimidin-2-yl]pyridine-3-carbonitrile], the IC50 is < 500 nM.

`CC(C)c1cnn2c(NCCc3c[nH]c4ccccc34)cc(-c3cccc(F)c3)nc12` [I-242, 5-(3-fluorophenyl)-N-[2-(1H-indol-3-yl)ethyl]-3-isopropyl-pyrazolo[1,5-a]pyrimidin-7-amine]: the IC50 was < 500 nM. The molecule `CC(C)Oc1nc(NCCc2c[nH]c3ccccc23)cc(-c2cncc(F)c2)n1` [I-80, 6-(5-Fluoro-3-pyridyl)-N-[2-(1H-indol-3-yl)ethyl]-2-isopropoxy-pyrimidin-4-amine] registered an IC50 of 500 to 1000 nM. The figure for `Cc1[nH]c2ccccc2c1CCNc1nc(-c2cncc(F)c2)nc2c1ncn2C(C)C` [I-79, 2-(5-Fluoro-3-pyridyl)-9-isopropyl-N-[2-(2-methyl-1H-indol-3-yl)ethyl]purin-6-amine] is < 500 nM; for `Cc1[nH]c2c(F)cccc2c1CCNc1nc(-c2cncc(F)c2)nc2c1ncn2C(C)C` [I-71, N-[2-(7-Fluoro-2-methyl-1H-indol-3-yl)ethyl]-2-(5-fluoro-3-pyridyl)-9-isopropyl-purin-6-amine] it is < 500 nM.

Regarding `CC(C)c1cnn2c(NC3CCc4[nH]c5ccccc5c4C3)nc(-c3ccc(OC(F)(F)F)cc3)nc12` (centres unmarked) [I-269], the IC50 was > 1500 nM. Consider `Cc1cnn2c(NC[C@H](O)c3c[nH]c4ccccc34)cc(-c3cncc(F)c3)nc12` [I-150a, (1R)-2-[[5-(5-Fluoro-3-pyridyl)-3-methyl-pyrazolo[1,5-a]pyrimidin-7-yl]amino]-1-(1H-indol-3-yl)ethanol], for which the IC50 was < 500 nM. Regarding `CC(C)c1cnn2c(NCCc3n[nH]c4ccccc34)nc(-c3cncc(F)c3)nc12` [I-289], the IC50 is < 500 nM. `CC(C)(C)c1cnn2c(NCCc3c[nH]c4ccccc34)nc(-c3cncc(F)c3)nc12` [I-131, N-(2-(1H-Indol-3-yl)ethyl)-8-(tert-butyl)-2-(5-fluoropyridin-3-yl)pyrazolo[1,5-a][1,3,5]triazin-4-amine]: the 50% inhibitory concentration (IC50) is < 500 nM. As to `O=Cc1cnn2c(NC3CCc4[nH]c5ccccc5c4C3)nc(-c3cncc(F)c3)nc12` (centres unmarked) [I-275], the 50% inhibitory concentration (IC50) is < 500 nM.

Consider `Oc1ccc(CCNc2cc(-c3cncc(F)c3)nc3ccnn23)cc1` [I-49, 4-[2-[[5-(5-Fluoro-3-pyridyl)pyrazolo[1,5-a]pyrimidin-7-yl]amino]ethyl]phenol], for which the IC50 is < 500 nM. The molecule `Cc1cnn2c(NCCc3c[nH]c4cccnc34)nc(-c3cncc(F)c3)nc12` [I-186, 2-(5-Fluoro-3-pyridyl)-8-methyl-N-[2-(1H-pyrrolo[3,2-b]pyridin-3-yl)ethyl]pyrazolo[1,5-a][1,3,5]triazin-4-amine] showed an IC50 of 500 to 1000 nM. With `CC(C)c1cnn2c(N[C@@H]3CCc4c([nH]c5ccccc45)C3)nc(-c3cncc(F)c3)nc12` [I-146b], the IC50 is > 1500 nM. Regarding `CC(C)c1cnn2c(NCCc3c[nH]c4ccccc34)cc(-c3ccc4c(c3)OCO4)nc12` [I-246, 5-(1,3-Benzodioxol-5-yl)-N-[2-(1H-indol-3-yl)ethyl]-3-isopropyl-pyrazolo[1,5-a]pyrimidin-7-amine], the 50% inhibitory concentration (IC50) lay within 1000 to 1500 nM. With `Cc1cnn2c(OCCc3c[nH]c4ccccc34)cc(-c3cncc(F)c3)nc12` [I-184], the IC50 is > 1500 nM. Take `CON(C)C(=O)c1cnn2c(NC3CCc4[nH]c5ccccc5c4C3)nc(-c3cncc(F)c3)nc12` (centres unmarked) [I-286]: the concentration for half-maximal inhibition (IC50) is < 500 nM. On to `O=C(O)c1cnn2c(NCCc3c[nH]c4ccc(O)cc34)cc(-c3cncc(F)c3)nc12` [I-168], for which the IC50 was > 1500 nM. The figure for `N#Cc1cncc(-c2cc(NCCc3c[nH]c4ccccc34)n3nccc3n2)c1` [I-43, 5-[7-[2-(1H-Indol-3-yl)ethylamino]pyrazolo[1,5-a]pyrimidin-5-yl]pyridine-3-carbonitrile] is 500 to 1000 nM; for `CC(C)c1cnn2c(NC3CCc4[nH]c5ccccc5c4C3)nc(-c3ccc(=O)n(C)c3)nc12` (centres unmarked) [I-272] it is > 1500 nM; for `Cc1cnn2c(N[C@H](Cc3c[nH]c4ccccc34)C(N)=O)cc(-c3cncc(F)c3)nc12` [I-190a] it is > 1500 nM. Molecule `Cc1cnn2c(NCCc3cc[nH]n3)cc(-c3cncc(F)c3)nc12` [I-180, 5-(5-Fluoro-3-pyridyl)-3-methyl-N-[2-(1H-pyrazol-3-yl)ethyl]pyrazolo[1,5-a]pyrimidin-7-amine] returned an IC50 of 500 to 1000 nM. For `Fc1cncc(-c2nc(NCCc3c[nH]c4ccccc34)n3ncc(Br)c3n2)c1` [I-141, 8-bromo-2-(5-fluoro-3-pyridyl)-N-[2-(1H-indol-3-yl)ethyl]pyrazolo[1,5-a][1,3,5]triazin-4-amine], the IC50 is < 500 nM.

One may read the IC50 as the concentration at which inhibition is half-maximal. A higher IC50 goes with weaker potency.
